The text below walks through data of patent US11109593B2, “Isoxazolin-5-one derivative and herbicide containing same as active ingredient” (HOKKO CHEMICAL INDUSTRY CO., LTD., priority 2017, dated 2021).

Format in all cases: in vivo
Assay [1] deals with Echinochloa crus-galli. Nature of the assay: Test Example 1: herbicidal effect test by treatment of rice paddy soil (immediately after seeding). Particulars: 120 g/10a active ingredient, dry weight vs untreated area, 14 days after treatment. In a few lines: (§1)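 Pre-emergence paddy water application, 120 g a.i./10 ares, applied immediately post-seeding into ~3 cm flood; glasshouse; duplicate pots; dry weight at 14 d → % inhibition = (1 − treated/untreated) × 100.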

For assay [2], the system named is Scirpus juncoides. Described as above. The following applies: 120 g/10a active ingredient, dry weight vs untreated area, 14 days after treatment. In a few lines: as §1
Assay [3] relates to broad leaf weeds (Lindernia pyxidaria and Monochoria vaginalis). The assay is described as above. The following applies: 120 g/10a active ingredient, dry weight vs untreated area, 14 days after treatment. In a few lines:
as §1

Assay [4] relates to Echinochloa crus-galli. Nature of the assay: Test Example 2: herbicidal effect test by treatment during growing period in paddy rice cultivation (seven days after seeding). Particulars: 120 g/10a active ingredient, assessed 14 days after treatment, dry weight vs untreated area. Put shortly: (§2)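 Emulsion formulations, diluted in water, applied dropwise to flooded pots (about 3 cm water) 7 days post-seeding at 120 g a.i./10 ares. Weeds sown 30 seeds each, 0–1 cm deep in puddled paddy soil; greenhouse. Readout: % reduction in plant dry weight vs untreated, day 14, duplicates.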

Assay [5] has as its system Scirpus juncoides. The description is as above. Particulars: 120 g/10a active ingredient, assessed 14 days after treatment, dry weight vs untreated area. Put shortly: as §2
In assay [6] the test system is broad leaf weeds (Lindernia pyxidaria and Monochoria vaginalis). Described as above. Particulars: 120 g/10a active ingredient, assessed 14 days after treatment, dry weight vs untreated area. Put shortly: as §2
For assay [7], the system named is Amaranthus viridis. The assay is described as follows: Test Example 3: herbicidal effect test by treatment of dry field farming soil (one day after seeding). The following applies: 120 g/10a active ingredient, evaluated 14 days after treatment. Put shortly:
(§3)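 Herbicidal rate (%) = {1 − treated/untreated mean plant dry weight} × 100, scored 14 days after spraying, duplicate pots per concentration. Emulsified compound was water-diluted and applied to soil surface one day post-seeding at 120 g a.i. per 10 ares.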

For assay [8], the system named is Chenopodium album. Described as above. The following applies: 120 g/10a active ingredient, evaluated 14 days after treatment. In a few lines: as §3
Assay [9] concerns Echinochloa crus-galli. The assay is described as above. The following applies: 120 g/10a active ingredient, evaluated 14 days after treatment. Put shortly: as §3
For assay [10], the system named is southern crabgrass. Described as above. The following applies: 120 g/10a active ingredient, evaluated 14 days after treatment. In a few lines: as §3
In assay [11] the test system is Amaranthus viridis. The assay is described as follows: Test Example 4: herbicidal effect test by treatment of leave and stem in dry field farming (seven days after seeding). Particulars: 120 g/10a active ingredient; emulsion sprayed seven days after seeding; evaluated 14 days after treatment. Put shortly:
(§4)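 Weeds were seeded at 20 seeds per species into the top 1 cm of alluvial upland soil in pots, then sprayed 7 days after seeding with water-diluted emulsifiable concentrate at 100 L/10 a, giving 120 g active ingredient/10 a. Duplicate pots; herbicidal rate (%) was 14 days post-treatment, from dry weight versus untreated.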

Assay [12] has as its system Chenopodium album. The description is as above. Particulars: 120 g/10a active ingredient; emulsion sprayed seven days after seeding; evaluated 14 days after treatment. In a few lines:
as §4

Assay [13] relates to Echinochloa crus-galli. The assay is described as above. Particulars: 120 g/10a active ingredient; emulsion sprayed seven days after seeding; evaluated 14 days after treatment. In a few lines:
as §4

For assay [14], the system named is southern crabgrass. The assay is described as above. The following applies: 120 g/10a active ingredient; emulsion sprayed seven days after seeding; evaluated 14 days after treatment. Put shortly: as §4

Regarding `CCC(=O)N(c1ccccc1Cc1c(C)n(CC(C)(C)C)oc1=O)S(=O)(=O)C(F)(F)F` [Compound 1-318], the “Herbicidal rate (%) Echinochloa crus-galli” value in [1] and in assay [4] was 90% throughout. Besides, the “Herbicidal rate (%) Scirpus juncoides” value in assay [2] and in assay [5] was 90% throughout. Further, the “Herbicidal rate (%) Lindernia pyxidaria” value in assay [3] and in assay [6] was 90% throughout. In addition, the “Herbicidal rate (%) Monochoria vaginalis” value in assay [3] and in [6] was 90% in each case. In [7], the “herbicidal rate, Amaranthus viridis” value worked out at 90%. The “herbicidal rate, Chenopodium album” value in [8] stood at 90%. Moreover, the “herbicidal rate, Echinochloa crus-galli” value in assay [9] is 90%. Further, the “herbicidal rate, southern crabgrass” value in assay [10] is 90%. The “herbicidal effect (herbicidal rate), Amaranthus viridis” value (“herbicidal effect … Amaranthus viridis” for short) in [11] was 40%. The “herbicidal effect (herbicidal rate), Chenopodium album” value (shortened to “herbicidal effect … Chenopodium album”) in assay [12] came to 40%. The “herbicidal effect (herbicidal rate), Echinochloa crus-galli” value in assay [13] is reported as 90%. The “herbicidal effect (herbicidal rate), southern crabgrass” value (shortened to “herbicidal effect … southern crabgrass”) in assay [14] amounted to 90%.
For `CCC(=O)N(c1ccccc1Cc1c(C)n(C(C)COC)oc1=O)S(=O)(=O)C(F)(F)F` (centres unmarked) [Compound 1-319], the “Herbicidal rate (%) Echinochloa crus-galli” value in assay [1] and in assay [4] was 90% each time. In addition, the “Herbicidal rate (%) Scirpus juncoides” value in assay [2] and in [5] was 90% throughout. The “Herbicidal rate (%) Lindernia pyxidaria” value in assay [3] and in [6] was 90% each time. Further, the “Herbicidal rate (%) Monochoria vaginalis” value in [3] and in [6] was 90% each time. Besides, the “herbicidal rate, Amaranthus viridis” value in assay [7] was 90%. Besides, in assay [8], the “herbicidal rate, Chenopodium album” value came out at 90%. For the same molecule, the “herbicidal rate, Echinochloa crus-galli” value in assay [9] stood at 90%. For the same molecule, the “herbicidal rate, southern crabgrass” value in assay [10] amounted to 90%. The “herbicidal effect … Amaranthus viridis” value in assay [11] came to 40%. In [12], the “herbicidal effect … Chenopodium album” value turned out to be 40%. Moreover, the “herbicidal effect (herbicidal rate), Echinochloa crus-galli” value in assay [13] came to 90%. Besides, the “herbicidal effect … southern crabgrass” value in assay [14] is recorded as 90%.
As for `CCC(=O)N(c1ccccc1Cc1c(C)n(CCSC)oc1=O)S(=O)(=O)C(F)(F)F` [Compound 1-320], the “Herbicidal rate (%) Echinochloa crus-galli” value in assay [1] and in assay [4] was 90% each time. In addition, the “Herbicidal rate (%) Scirpus juncoides” value in [2] and in assay [5] was 90% in each case. For the same molecule, the “Herbicidal rate (%) Lindernia pyxidaria” value in [3] and in assay [6] was 90% in each case. Also, the “Herbicidal rate (%) Monochoria vaginalis” value in assay [3] and in [6] was 90% in each case. Moreover, in assay [7], the “herbicidal rate, Amaranthus viridis” value is given as 90%. In addition, the “herbicidal rate, Chenopodium album” value in [8] is recorded as 90%. In addition, in assay [9], the “herbicidal rate, Echinochloa crus-galli” value came out at 90%. Besides, the “herbicidal rate, southern crabgrass” value in [10] is given as 90%. In addition, the “herbicidal effect … Amaranthus viridis” value in assay [11] is given as 40%. Also, the “herbicidal effect … Chenopodium album” value in assay [12] is listed as 40%. For the same molecule, in [13], the “herbicidal effect (herbicidal rate), Echinochloa crus-galli” value is recorded as 90%. For the same molecule, in assay [14], the “herbicidal effect … southern crabgrass” value worked out at 90%.
For `CCC(=O)N(c1ccccc1Cc1c(C)n(C(C)c2ccccc2)oc1=O)S(=O)(=O)C(F)(F)F` (centres unmarked) [Compound 1-321], the “Herbicidal rate (%) Echinochloa crus-galli” value in [1] and in assay [4] was 90% in each case. Besides, the “Herbicidal rate (%) Scirpus juncoides” value in assay [2] and in assay [5] was 90% in each case. Further, the “Herbicidal rate (%) Lindernia pyxidaria” value in [3] and in [6] was 90% each time. Also, the “Herbicidal rate (%) Monochoria vaginalis” value in assay [3] and in assay [6] was 90% each time. For the same molecule, the “herbicidal rate, Amaranthus viridis” value in [7] is 90%. Moreover, in assay [8], the “herbicidal rate, Chenopodium album” value came out at 90%. Further, in assay [9], the “herbicidal rate, Echinochloa crus-galli” value came to 90%. Also, the “herbicidal rate, southern crabgrass” value in assay [10] is 90%. Besides, the “herbicidal effect … Amaranthus viridis” value in assay [11] was found to be 40%. The “herbicidal effect … Chenopodium album” value in [12] worked out at 40%. Moreover, in assay [13], the “herbicidal effect (herbicidal rate), Echinochloa crus-galli” value turned out to be 90%. In assay [14], the “herbicidal effect … southern crabgrass” value was 90%.
Turning to `Cc1c(Cc2ccccc2N(C(=O)C(C)C)S(=O)(=O)C(F)(F)F)c(=O)on1C(C)(C)C` [Compound 1-329], the “Herbicidal rate (%) Echinochloa crus-galli” value in assay [1] and in [4] was 90% each time. In addition, the “Herbicidal rate (%) Scirpus juncoides” value in assay [2] and in [5] was 90% in each case. The “Herbicidal rate (%) Lindernia pyxidaria” value in [3] and in [6] was 90% each time. In addition, the “Herbicidal rate (%) Monochoria vaginalis” value in [3] and in assay [6] was 90% throughout. Further, the “herbicidal rate, Amaranthus viridis” value in assay [7] is given as 90%. In addition, in [8], the “herbicidal rate, Chenopodium album” value is reported as 90%. The “herbicidal rate, Echinochloa crus-galli” value in [9] was found to be 90%. In addition, the “herbicidal rate, southern crabgrass” value in [10] is given as 90%. Moreover, in assay [11], the “herbicidal effect … Amaranthus viridis” value is recorded as 40%. In [12], the “herbicidal effect … Chenopodium album” value is 40%. Further, in assay [13], the “herbicidal effect (herbicidal rate), Echinochloa crus-galli” value worked out at 90%. Moreover, the “herbicidal effect … southern crabgrass” value in assay [14] came out at 90%.
Turning to `CCC(C)n1oc(=O)c(Cc2ccccc2N(C(=O)C(C)C)S(=O)(=O)C(F)(F)F)c1C` (centres unmarked) [Compound 1-330], the “Herbicidal rate (%) Echinochloa crus-galli” value in [1] and in assay [4] was 90% throughout. For the same molecule, the “Herbicidal rate (%) Scirpus juncoides” value in [2] and in [5] was 90% each time. In addition, the “Herbicidal rate (%) Lindernia pyxidaria” value in [3] and in assay [6] was 90% each time. The “Herbicidal rate (%) Monochoria vaginalis” value in [3] and in [6] was 90% throughout. For the same molecule, the “herbicidal rate, Amaranthus viridis” value in [7] stood at 90%. The “herbicidal rate, Chenopodium album” value in [8] was 90%. For the same molecule, the “herbicidal rate, Echinochloa crus-galli” value in assay [9] worked out at 90%. Besides, in assay [10], the “herbicidal rate, southern crabgrass” value worked out at 90%. Also, the “herbicidal effect … Amaranthus viridis” value in [11] came to 40%. Moreover, in assay [12], the “herbicidal effect … Chenopodium album” value came to 40%. Also, the “herbicidal effect (herbicidal rate), Echinochloa crus-galli” value in assay [13] is given as 90%. Further, in [14], the “herbicidal effect … southern crabgrass” value turned out to be 90%.
In the case of `CCC(CC)n1oc(=O)c(Cc2ccccc2N(C(=O)C(C)C)S(=O)(=O)C(F)(F)F)c1C` [Compound 1-331], the “Herbicidal rate (%) Echinochloa crus-galli” value in assay [1] and in [4] was 90% throughout. The “Herbicidal rate (%) Scirpus juncoides” value in assay [2] and in assay [5] was 90% throughout. Moreover, the “Herbicidal rate (%) Lindernia pyxidaria” value in assay [3] and in [6] was 90% in each case. Moreover, the “Herbicidal rate (%) Monochoria vaginalis” value in assay [3] and in assay [6] was 90% in each case. In addition, the “herbicidal rate, Amaranthus viridis” value in assay [7] turned out to be 90%. Also, in assay [8], the “herbicidal rate, Chenopodium album” value is 90%. In addition, the “herbicidal rate, Echinochloa crus-galli” value in assay [9] is reported as 90%. Moreover, in assay [10], the “herbicidal rate, southern crabgrass” value came to 90%. Besides, the “herbicidal effect … Amaranthus viridis” value in assay [11] was determined as 40%. Besides, the “herbicidal effect … Chenopodium album” value in [12] came to 40%. Also, the “herbicidal effect (herbicidal rate), Echinochloa crus-galli” value in [13] is recorded as 90%. The “herbicidal effect … southern crabgrass” value in assay [14] is 90%.
Regarding `Cc1c(Cc2ccccc2N(C(=O)C(C)C)S(=O)(=O)C(F)(F)F)c(=O)on1CC(C)(C)C` [Compound 1-333], the “Herbicidal rate (%) Echinochloa crus-galli” value in assay [1] and in assay [4] was 90% in each case. Further, the “Herbicidal rate (%) Scirpus juncoides” value in assay [2] and in assay [5] was 90% each time. Moreover, the “Herbicidal rate (%) Lindernia pyxidaria” value in [3] and in assay [6] was 90% throughout. Besides, the “Herbicidal rate (%) Monochoria vaginalis” value in [3] and in [6] was 90% each time. The “herbicidal rate, Amaranthus viridis” value in assay [7] came to 90%. Further, the “herbicidal rate, Chenopodium album” value in assay [8] was determined as 90%. The “herbicidal rate, Echinochloa crus-galli” value in assay [9] is 90%. Moreover, the “herbicidal rate, southern crabgrass” value in assay [10] was found to be 90%. The “herbicidal effect … Amaranthus viridis” value in [11] was 40%. Also, the “herbicidal effect … Chenopodium album” value in assay [12] amounted to 40%. Besides, in assay [13], the “herbicidal effect (herbicidal rate), Echinochloa crus-galli” value is 90%. Also, the “herbicidal effect … southern crabgrass” value in assay [14] came to 90%.
